Results: patent US20190100534A1, “Cephem Compounds with Latent Reactive Groups” (Gladius Pharmaceuticals, Inc., priority 2017, published 2019)

Assays:
[1] = system: Pseudomonas aeruginosa PA (RR-2); test: MIC determination; format: cell-based; settings: Pseudomonas aeruginosa; PA (RR-2); CAMH broth, 20 μM Apo-Transferrin, 37° C., 18 hours; read-out: Minimum Inhibitory Concentrations, PA (RR-2)
In short: (§1)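 Values come from a visual broth microdilution read: the first transparent well at the lowest drug level defines MIC. Inocula were standardized to 0.5 McFarland units, and the medium was CAMH with 20 μM apo-transferrin. Plates incubated overnight, 18 h, at 37 °C.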

[2] = system: Pseudomonas aeruginosa PA (URMC-3); test: MIC determination; format: cell-based; settings: Pseudomonas aeruginosa; PA (URMC-3); CAMH broth, 20 μM Apo-Transferrin, 37° C., 18 hours; read-out: Minimum Inhibitory Concentrations, PA (URMC-3)
In short: as §1

[3] = system: Pseudomonas aeruginosa PA-RR-(980151052); test: MIC determination; format: cell-based; settings: Pseudomonas aeruginosa; PA-RR-(980151052); CAMH broth, 20 μM Apo-Transferrin, 37° C., 18 hours; read-out: Minimum Inhibitory Concentrations, PA-RR-(980151052)
In short: as §1

[4] = system: Pseudomonas aeruginosa PA-RR-(98023895); test: MIC determination; format: cell-based; settings: Pseudomonas aeruginosa; PA-RR-(98023895); CAMH broth, 20 μM Apo-Transferrin, 37° C., 18 hours; read-out: Minimum Inhibitory Concentrations, PA-RR-(98023895)
In short: as §1

[5] = system: Pseudomonas aeruginosa PA-RR-(G7304100); test: MIC determination; format: cell-based; settings: Pseudomonas aeruginosa; PA-RR-(G7304100); CAMH broth, 20 μM Apo-Transferrin, 37° C., 18 hours; read-out: Minimum Inhibitory Concentrations, PA-RR-(G7304100)
In short: as §1

[6] = system: Pseudomonas aeruginosa PA-RR-(G7305586); test: MIC determination; format: cell-based; settings: Pseudomonas aeruginosa; PA-RR-(G7305586); CAMH broth, 20 μM Apo-Transferrin, 37° C., 18 hours; read-out: Minimum Inhibitory Concentrations, PA-RR-(G7305586)
In short: as §1

[7] = system: A. baumannii; test: MIC determination; format: cell-based, Acinetobacter baumannii; settings: for MIC: Acinetobacter baumannii, A. baumannii, CAMH broth, 20 μM Apo-Transferrin, 37° C., 18 hours, read-out: Minimum Inhibitory Concentrations, A. baumannii
Description: (§2) Sterile technique was used throughout these experiments. Suspensions of organisms were removed from storage (−80° C.) and partially thawed. Partially thawed organisms (1 μL) were inoculated into 3 mL sterile LB Broth in a sterile culture tube and capped, then cultured at 37° C. with shaking for 4-5 hours until the optical density at 600 nm (OD600) was greater than 0.1 on a single beam spectrophotometer.
(§3) The concentration of organisms was adjusted to 0.08-0.1 OD600 (0.5 McFarland units) by dilution with sterile cation-adjusted Meuller-Hinton (CAMH) broth. The suspensions were used within 30 minutes of preparation.
(§4) A stock solution was made of each test compound by measuring 6.4 mg of the compound on an analytical balance and dissolving it in DMSO (1 mL) to get a transparent solution. The solutions were stored at −20° C. and thawed prior to use.
(§5) Sterile CAMH broth (200 μL) containing 20 μM Apo-Transferrin was pipetted into the first row of 8 columns of a sterile, round-bottomed, transparent, 96-well microplate using an 8-channel pipette equipped with sterile tips. One hundred μL was pipetted into the wells of the remaining 11 rows.
(§6) With an 8-channel pipette equipped with sterile tips, 100 μL of the first row solution was transferred to the second row and mixed. The process was repeated for the second to third rows and continued through row 11. One hundred μL from row 11 was removed and discarded so that all 12 rows contained 100 μL. Row 12 contained no compound and rows 1-11 contained 64, 32, 16, 8, 4, 2, 1, 0.5, 0.25, 0.125, […] of a given compound.
(§7) Inoculant suspensions (0.5 μL) were added to the 12 wells of each column. The plates were then covered and incubated at 37° C. overnight for 18 hours.
(§8) For each organism the MIC was determined by identifying the transparent well with the lowest test compound concentration.

[8] = system: EC (RR -1); test: MIC determination; format: cell-based, Escherichia coli; settings: CAMH broth, 20 μM Apo-Transferrin, 37° C., 18 hours
Description: as §2, §3, §4, §5, §6, §7, §8

[9] = system: EC (RR -2); test: MIC determination; format: cell-based, Escherichia coli; settings: CAMH broth, 20 μM Apo-Transferrin, 37° C., 18 hours
Description: as §2, §3, §4, §5, §6, §7, §8

[10] = system: EC (URMC-1); test: MIC determination; format: cell-based, Escherichia coli; settings: Escherichia coli, CAMH broth, 20 μM Apo-Transferrin, 37° C., 18 hours, read-out: Minimum Inhibitory Concentrations, EC (URMC-1)
Description: as §2, §3, §4, §5, §6, §7, §8

[11] = system: EC (URMC-2); test: MIC determination; format: cell-based, Escherichia coli; settings: Escherichia coli, CAMH broth, 20 μM Apo-Transferrin, 37° C., 18 hours, read-out: Minimum Inhibitory Concentrations, EC (URMC-2)
Description: as §2, §3, §4, §5, §6, §7, §8

[12] = system: EC (URMC-3); test: MIC determination; format: cell-based, Escherichia coli; settings: Escherichia coli, CAMH broth, 20 μM Apo-Transferrin, 37° C., 18 hours, read-out: Minimum Inhibitory Concentrations, EC (URMC-3)
Description: as §2, §3, §4, §5, §6, §7, §8

[13] = system: EC(ATCC NDM-1); test: MIC determination; format: cell-based, Escherichia coli; settings: Escherichia coli, CAMH broth, 20 μM Apo-Transferrin, 37° C., 18 hours, read-out: Minimum Inhibitory Concentrations, EC(ATCC NDM-1)
Description: as §2, §3, §4, §5, §6, §7, §8

[14] = system: EC(JMI OXA-48); test: MIC determination; format: cell-based, Escherichia coli; settings: Escherichia coli, CAMH broth, 20 μM Apo-Transferrin, 37° C., 18 hours, read-out: Minimum Inhibitory Concentrations, EC(JMI OXA-48)
Description: as §2, §3, §4, §5, §6, §7, §8

[15] = system: EC(KB1 CTX-M-15); test: MIC determination; format: cell-based, Escherichia coli; settings: Escherichia coli, CAMH broth, 20 μM Apo-Transferrin, 37° C., 18 hours, read-out: Minimum Inhibitory Concentrations, EC(KB1 CTX-M-15)
Description: as §2, §3, §4, §5, §6, §7, §8

[16] = system: EC(KB2 CTX-M-15); test: MIC determination; format: cell-based, Escherichia coli; settings: Escherichia coli, CAMH broth, 20 μM Apo-Transferrin, 37° C., 18 hours, read-out: Minimum Inhibitory Concentrations, EC(KB2 CTX-M-15)
Description: as §2, §3, §4, §5, §6, §7, §8

[17] = system: KP (ATCC KPC-3); test: MIC determination; format: cell-based, Klebsiella pneumoniae; settings: CAMH broth, 20 μM Apo-Transferrin, 37° C., 18 hours
Description: as §2, §3, §4, §5, §6, §7, §8

[18] = system: KP (GJ 5659 TEM-26); test: MIC determination; format: cell-based, Klebsiella pneumoniae; settings: CAMH broth, 20 μM Apo-Transferrin, 37° C., 18 hours
Description: as §2, §3, §4, §5, §6, §7, §8

[19] = system: KP (RR -1); test: MIC determination; format: cell-based, Klebsiella pneumoniae; settings: CAMH broth, 20 μM Apo-Transferrin, 37° C., 18 hours
Description: as §2, §3, §4, §5, §6, §7, §8

[20] = system: KP (URMC-1); test: MIC determination; format: cell-based, Klebsiella pneumoniae; settings: CAMH broth, 20 μM Apo-Transferrin, 37° C., 18 hours
Description: as §2, §3, §4, §5, §6, §7, §8

[21] = system: KP (URMC-2); test: MIC determination; format: cell-based, Klebsiella pneumoniae; settings: CAMH broth, 20 μM Apo-Transferrin, 37° C., 18 hours
Description: as §2, §3, §4, §5, §6, §7, §8

[22] = system: KP (URMC-3); test: MIC determination; format: cell-based, Klebsiella pneumoniae; settings: CAMH broth, 20 μM Apo-Transferrin, 37° C., 18 hours
Description: as §2, §3, §4, §5, §6, §7, §8

[23] = system: KP(GJ 5934 TEM-26); test: MIC determination; format: cell-based, Klebsiella pneumoniae; settings: CAMH broth, 20 μM Apo-Transferrin, 37° C., 18 hours
Description: as §2, §3, §4, §5, §6, §7, §8

[24] = system: KP(JMI KPC-2); test: MIC determination; format: cell-based, Klebsiella pneumoniae; settings: CAMH broth, 20 μM Apo-Transferrin, 37° C., 18 hours
Description: as §2, §3, §4, §5, §6, §7, §8

[25] = system: KP(ATCC TEM-10/TEM-12); format: cell-based, Klebsiella pneumoniae; settings: CAMH broth, 20 μM Apo-Transferrin, 37° C., 18 hours
Description: as §2, §3, §4, §5, §6, §7, §8

[26] = system: CF (RR -1); test: MIC determination; format: cell-based, Citrobacter freundii; settings: CAMH broth, 20 μM Apo-Transferrin, 37° C., 18 hours
Description: as §2, §3, §4, §5, §6, §7, §8

[27] = system: ENC (ATCC NDM-1); test: MIC determination; format: cell-based, Enterobacter cloacae; settings: CAMH broth, 20 μM Apo-Transferrin, 37° C., 18 hours
Description: as §2, §3, §4, §5, §6, §7, §8

Row | SMILES | MIC [1] | MIC [2] | MIC [3] | MIC [4] | MIC [5] | MIC [6] | MIC [7] | Mimimum Inhibitory Concentrations, EC (RR -1) [8] | Mimimum Inhibitory Concentrations, EC (RR -2) [9] | MIC [10] | MIC [11] | MIC [12] | MIC [13] | MIC [14] | MIC [15] | MIC [16] | Minimum Inhibitory Concentrations, KP (ATCC KPC-3) [17] | Minimum Inhibitory Concentrations, KP (GJ 5659 TEM-26) [18] | Mimimum Inhibitory Concentrations, KP (RR -1) [19] | Minimum Inhibitory Concentrations, KP (URMC-1) [20] | also measured
1 | CC(C)(O/N=C(\C(=O)N[C@@H]1C(=O)N2C(C(=O)O)=C(C=Cc3ccc(C[N+]4(C)CCc5c(Cl)c(O)c(O)c(Cl)c5C4)cc3)CS[C@H]12)c1csc(N)n1)C(=O)O (mixture of isomers) [Compound 429, 2-(4-((E/Z)-2-((6R,7R)-7-((Z)-2-(2-aminothiazol-4-yl)-2-(((2-carboxypropan-2-yl)oxy)imino)acetamido)-2-carboxy-8-oxo-5-thia-1-azabicyclo[4.2.0]oct-2-en-3-yl)vinyl)benzyl)-5,8 dichloro-6,7-dihydroxy-2-methyl-1,2,3,4-tetrahydroisoquinolin-2-ium] | ≤ 0.06 µg/mL | 0.5 µg/mL | 0.5 µg/mL | 4 µg/mL | ≤ 0.06 µg/mL | 1 µg/mL | 2 µg/mL | ≤0.06 microgram/mL | ≤0.06 microgram/mL | 0.5 µg/mL | 0.13 µg/mL | 0.5 µg/mL | > 64 µg/mL | 2 µg/mL | 8 µg/mL | 8 µg/mL | >64 microgram/mL | 0.5 microgram/mL | 0.25 microgram/mL | ≤0.06 microgram/mL | Minimum Inhibitory Concentrations, KP (URMC-2) [21]: ≤0.06 microgram/mL; Minimum Inhibitory Concentrations, KP (URMC-3) [22]: ≤0.06 microgram/mL; Minimum Inhibitory Concentrations, KP(GJ 5934 TEM-26) [23]: 0.5 microgram/mL; Minimum Inhibitory Concentrations, KP(JMI KPC-2) [24]: 16 microgram/mL; Minimum Inhibitory Concentrations, KP(ATCC TEM-10/TEM-12) [25]: 4 microgram/mL; Mimimum Inhibitory Concentrations, CF (RR -1) [26]: ≤0.06 microgram/mL; Mimimum Inhibitory Concentrations, ENC (ATCC NDM-1) [27]: >64 microgram/mL
2 | CC(C)(O/N=C(\C(=O)N[C@@H]1C(=O)N2C(C(=O)O)=C(C=Cc3ccc(C[N+]4(C)Cc5c(Cl)c(O)c(O)c(Cl)c5C4)cc3)CS[C@H]12)c1csc(N)n1)C(=O)O (mixture of isomers) [Compound 431, 2-(4-((E/Z)-2-((6R,7R)-7-((Z)-2-(2-aminothiazol-4-yl)-2-(((2-carboxypropan-2-yl)oxy)imino)acetamido)-2-carboxy-8-oxo-5-thia-1-azabicyclo[4.2.0]oct-2-en-3-yl)vinyl)benzyl)-4,7-dichloro-5,6-dihydroxy-2-methylisoindolin-2-ium] | ≤ 0.06 µg/mL | 1 µg/mL | 0.25 µg/mL | 4 µg/mL | ≤ 0.06 µg/mL | 0.5 µg/mL | 1 µg/mL | ≤0.06 microgram/mL | ≤0.06 microgram/mL | 0.25 µg/mL | ≤ 0.06 µg/mL | 0.25 µg/mL | > 64 µg/mL | 0.5 µg/mL | 2 µg/mL | 2 µg/mL | >64 microgram/mL | 0.5 microgram/mL | 0.13 microgram/mL | 0.25 microgram/mL | MICs for an Acinetobacter baumannii strain, in words ([7]; review of Table 2): low microgram/mL MICs; Minimum Inhibitory Concentrations, KP (URMC-2) [21]: 0.13 microgram/mL; Minimum Inhibitory Concentrations, KP (URMC-3) [22]: ≤0.06 microgram/mL; Minimum Inhibitory Concentrations, KP(GJ 5934 TEM-26) [23]: 0.5 microgram/mL; Minimum Inhibitory Concentrations, KP(JMI KPC-2) [24]: 8 microgram/mL; Minimum Inhibitory Concentrations, KP(ATCC TEM-10/TEM-12) [25]: 16 microgram/mL; Mimimum Inhibitory Concentrations, CF (RR -1) [26]: 1 microgram/mL; Mimimum Inhibitory Concentrations, ENC (ATCC NDM-1) [27]: >64 microgram/mL
